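Grown in 96-well plates, cells were treated for 48 hours with each compound at five concentrations. Insufficient inhibition: endpoint recorded as highest concentration tested. Abbreviation: GI50, concentration required for 50% inhibition of growth. TGI: concentration producing complete growth inhibition.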
Key:
Test in all cases: NCI anticancer screen, dose series, 48 h; in the data active = GI50 below about 0.43 µM; inactive = the rest
786-0 renal = tested on: 786-0 renal
A498 renal = tested on: A498 renal
A549 NSCLC = tested on: A549 NSCLC
ACHN renal = tested on: ACHN renal
BT-549 breast = tested on: BT-549 breast
CAKI-1 renal = tested on: CAKI-1 renal
CCRF-CEM leukemia = tested on: CCRF-CEM leukemia
COLO 205 colon = tested on: COLO 205 colon
DU-145 prostate = tested on: DU-145 prostate
EKVX NSCLC = tested on: EKVX NSCLC
HCC-2998 colon = tested on: HCC-2998 colon
HCT-116 colon = tested on: HCT-116 colon
HCT-15 colon = tested on: HCT-15 colon
HL-60(TB) leukemia = tested on: HL-60(TB) leukemia
HOP-62 NSCLC = tested on: HOP-62 NSCLC
HOP-92 NSCLC = tested on: HOP-92 NSCLC
HS 578T breast = tested on: HS 578T breast
HT29 colon = tested on: HT29 colon
IGROV1 ovarian = tested on: IGROV1 ovarian
K-562 leukemia = tested on: K-562 leukemia
KM12 colon = tested on: KM12 colon
LOX IMVI melanoma = tested on: LOX IMVI melanoma
M14 melanoma = tested on: M14 melanoma
MALME-3M melanoma = tested on: MALME-3M melanoma
MCF7 breast = tested on: MCF7 breast
MDA-MB-231 breast = tested on: MDA-MB-231 breast
MDA-MB-435 = tested on: MDA-MB-435
MDA-N = tested on: MDA-N
MOLT-4 leukemia = tested on: MOLT-4 leukemia
NCI-H226 lung = tested on: NCI-H226 lung
NCI-H23 lung = tested on: NCI-H23 lung
NCI-H460 lung = tested on: NCI-H460 lung
NCI-H522 lung = tested on: NCI-H522 lung
NCI/ADR-RES ovarian = tested on: NCI/ADR-RES ovarian
OVCAR-3 ovarian = tested on: OVCAR-3 ovarian
OVCAR-4 ovarian = tested on: OVCAR-4 ovarian
OVCAR-5 ovarian = tested on: OVCAR-5 ovarian
OVCAR-8 ovarian = tested on: OVCAR-8 ovarian
PC-3 prostate = tested on: PC-3 prostate
RPMI-8226 leukemia = tested on: RPMI-8226 leukemia
RXF 393 renal = tested on: RXF 393 renal
SF-268 CNS = tested on: SF-268 CNS
SF-295 CNS = tested on: SF-295 CNS
SF-539 CNS = tested on: SF-539 CNS
SK-MEL-2 melanoma = tested on: SK-MEL-2 melanoma
SK-MEL-28 melanoma = tested on: SK-MEL-28 melanoma
SK-MEL-5 melanoma = tested on: SK-MEL-5 melanoma
SK-OV-3 ovarian = tested on: SK-OV-3 ovarian
SN12C renal = tested on: SN12C renal
SNB-19 CNS = tested on: SNB-19 CNS
SNB-75 CNS = tested on: SNB-75 CNS
SR leukemia = tested on: SR leukemia
SW-620 colon = tested on: SW-620 colon
T-47D breast = tested on: T-47D breast
TK-10 renal = tested on: TK-10 renal
U251 CNS = tested on: U251 CNS
UACC-257 melanoma = tested on: UACC-257 melanoma
UACC-62 melanoma = tested on: UACC-62 melanoma
UO-31 renal = tested on: UO-31 renal

O=C(O)C(Sc1ccc(Cl)cc1)Sc1ccc(Cl)cc1
72.1 µM: TGI (UACC-62 melanoma)
> 100 µM: TGI (786-0 renal) | TGI (A549 NSCLC) | TGI (ACHN renal) | TGI (BT-549 breast) | TGI (CAKI-1 renal) | TGI (CCRF-CEM leukemia) | TGI (DU-145 prostate) | TGI (EKVX NSCLC) | TGI (HCT-116 colon) | TGI (HCT-15 colon) | TGI (HL-60(TB) leukemia) | TGI (HOP-62 NSCLC) | TGI (HS 578T breast) | TGI (HT29 colon) | TGI (IGROV1 ovarian) | TGI (K-562 leukemia) | TGI (KM12 colon) | TGI (LOX IMVI melanoma) | TGI (M14 melanoma) | TGI (MALME-3M melanoma) | TGI (MCF7 breast) | TGI (MDA-MB-231 breast) | TGI (MDA-MB-435) | TGI (MDA-N) | TGI (MOLT-4 leukemia) | TGI (NCI-H226 lung) | TGI (NCI-H23 lung) | TGI (NCI-H460 lung) | TGI (NCI-H522 lung) | TGI (NCI/ADR-RES ovarian) | TGI (OVCAR-4 ovarian) | TGI (OVCAR-5 ovarian) | TGI (OVCAR-8 ovarian) | TGI (PC-3 prostate) | TGI (RPMI-8226 leukemia) | TGI (RXF 393 renal) | TGI (SF-268 CNS) | TGI (SF-295 CNS) | TGI (SF-539 CNS) | TGI (SK-MEL-28 melanoma) | TGI (SK-MEL-5 melanoma) | TGI (SK-OV-3 ovarian) | TGI (SN12C renal) | TGI (SNB-19 CNS) | TGI (SNB-75 CNS) | TGI (SR leukemia) | TGI (SW-620 colon) | TGI (T-47D breast) | TGI (TK-10 renal) | TGI (U251 CNS) | TGI (UACC-257 melanoma) | TGI (UO-31 renal)
82.6 µM: TGI (OVCAR-3 ovarian)
95.5 µM: TGI (A498 renal)
68.2 µM: TGI (HOP-92 NSCLC)
69.1 µM: TGI (HCC-2998 colon) | TGI (SK-MEL-2 melanoma)
59 µM: TGI (COLO 205 colon)

CCOC(=O)/C(O)=C(/C=NC(=S)c1ccncc1)C(=O)OCC
> 100 µM: TGI (786-0 renal) | TGI (A498 renal) | TGI (A549 NSCLC) | TGI (ACHN renal) | TGI (BT-549 breast) | TGI (CAKI-1 renal) | TGI (CCRF-CEM leukemia) | TGI (COLO 205 colon) | TGI (DU-145 prostate) | TGI (EKVX NSCLC) | TGI (HCC-2998 colon) | TGI (HCT-116 colon) | TGI (HCT-15 colon) | TGI (HL-60(TB) leukemia) | TGI (HOP-62 NSCLC) | TGI (HOP-92 NSCLC) | TGI (HS 578T breast) | TGI (HT29 colon) | TGI (IGROV1 ovarian) | TGI (K-562 leukemia) | TGI (KM12 colon) | TGI (LOX IMVI melanoma) | TGI (M14 melanoma) | TGI (MALME-3M melanoma) | TGI (MCF7 breast) | TGI (MDA-MB-231 breast) | TGI (MDA-MB-435) | TGI (MDA-N) | TGI (MOLT-4 leukemia) | TGI (NCI-H226 lung) | TGI (NCI-H23 lung) | TGI (NCI-H460 lung) | TGI (NCI-H522 lung) | TGI (NCI/ADR-RES ovarian) | TGI (OVCAR-4 ovarian) | TGI (OVCAR-5 ovarian) | TGI (OVCAR-8 ovarian) | TGI (PC-3 prostate) | TGI (RPMI-8226 leukemia) | TGI (RXF 393 renal) | TGI (SF-268 CNS) | TGI (SF-295 CNS) | TGI (SF-539 CNS) | TGI (SK-MEL-2 melanoma) | TGI (SK-MEL-28 melanoma) | TGI (SK-MEL-5 melanoma) | TGI (SK-OV-3 ovarian) | TGI (SN12C renal) | TGI (SNB-75 CNS) | TGI (SR leukemia) | TGI (SW-620 colon) | TGI (T-47D breast) | TGI (TK-10 renal) | TGI (U251 CNS) | TGI (UACC-257 melanoma) | TGI (UACC-62 melanoma) | TGI (UO-31 renal)
97 µM: TGI (SNB-19 CNS)
> 28.8 µM: TGI (OVCAR-3 ovarian)
inactive: GI50 (HOP-92 NSCLC) > 100 µM | GI50 (TK-10 renal) > 100 µM

Brc1ccc2c(-c3nc(-c4c[nH]c5ccc(Br)cc45)cs3)c[nH]c2c1
17 µM: TGI (A549 NSCLC)
18.4 µM: TGI (MDA-MB-231 breast)
> 30 µM: TGI (ACHN renal)
> 27.7 µM: TGI (CCRF-CEM leukemia)
14.3 µM: TGI (HCT-116 colon)
> 22.3 µM: TGI (K-562 leukemia)
17.7 µM: TGI (SF-268 CNS)
13.1 µM: TGI (HCT-15 colon)
24.3 µM: TGI (OVCAR-4 ovarian)
28.7 µM: TGI (SK-MEL-28 melanoma)
14.5 µM: TGI (CAKI-1 renal)
7.06 µM: TGI (COLO 205 colon)
23.6 µM: TGI (UACC-257 melanoma)
18.9 µM: TGI (MDA-MB-435)
13.9 µM: TGI (MCF7 breast)
5.22 µM: TGI (LOX IMVI melanoma)
3.61 µM: TGI (HT29 colon)
14 µM: TGI (RPMI-8226 leukemia)
19.4 µM: TGI (MALME-3M melanoma)
27.8 µM: TGI (BT-549 breast)
> 48.4 µM: TGI (UACC-62 melanoma)
13.8 µM: TGI (M14 melanoma)
29.4 µM: TGI (SK-OV-3 ovarian)
29.3 µM: TGI (HOP-62 NSCLC)
12.3 µM: TGI (SK-MEL-5 melanoma)
31.4 µM: TGI (SNB-75 CNS)
8.19 µM: TGI (KM12 colon)
> 52.9 µM: TGI (HS 578T breast)
13 µM: TGI (SNB-19 CNS) | TGI (SR leukemia)
18.1 µM: TGI (NCI/ADR-RES ovarian) | TGI (SF-539 CNS)
4.85 µM: TGI (NCI-H522 lung)
13.7 µM: TGI (UO-31 renal)
17.9 µM: TGI (PC-3 prostate) | TGI (TK-10 renal)
16.4 µM: TGI (MDA-N)
5.92 µM: TGI (HCC-2998 colon)
17.8 µM: TGI (SF-295 CNS)
8.36 µM: TGI (NCI-H460 lung)
28 µM: TGI (OVCAR-3 ovarian)
25.3 µM: TGI (OVCAR-8 ovarian)
16.9 µM: TGI (IGROV1 ovarian) | TGI (SN12C renal)
23.2 µM: TGI (HL-60(TB) leukemia)
16.1 µM: TGI (U251 CNS)
5.37 µM: TGI (NCI-H226 lung)
11.8 µM: TGI (A498 renal)
11 µM: TGI (HOP-92 NSCLC)
13.3 µM: TGI (NCI-H23 lung)
6.33 µM: TGI (786-0 renal)
6.98 µM: TGI (EKVX NSCLC)
10.4 µM: TGI (OVCAR-5 ovarian)
12.4 µM: TGI (RXF 393 renal)
19.1 µM: TGI (DU-145 prostate)
31.9 µM: TGI (T-47D breast)
8.42 µM: TGI (MOLT-4 leukemia)
24.4 µM: TGI (SW-620 colon)
20.7 µM: TGI (SK-MEL-2 melanoma)

COC1(OC)C2(Cl)CCC1(Cl)C(OC(C)=O)C2 (configuration not stated)
> 100 µM: TGI (786-0 renal) | TGI (A498 renal) | TGI (A549 NSCLC) | TGI (ACHN renal) | TGI (BT-549 breast) | TGI (CAKI-1 renal) | TGI (CCRF-CEM leukemia) | TGI (COLO 205 colon) | TGI (DU-145 prostate) | TGI (EKVX NSCLC) | TGI (HCC-2998 colon) | TGI (HCT-116 colon) | TGI (HCT-15 colon) | TGI (HOP-62 NSCLC) | TGI (HOP-92 NSCLC) | TGI (HS 578T breast) | TGI (HT29 colon) | TGI (IGROV1 ovarian) | TGI (K-562 leukemia) | TGI (KM12 colon) | TGI (LOX IMVI melanoma) | TGI (M14 melanoma) | TGI (MALME-3M melanoma) | TGI (MCF7 breast) | TGI (MDA-MB-231 breast) | TGI (MDA-MB-435) | TGI (MDA-N) | TGI (MOLT-4 leukemia) | TGI (NCI-H226 lung) | TGI (NCI-H23 lung) | TGI (NCI-H460 lung) | TGI (NCI-H522 lung) | TGI (NCI/ADR-RES ovarian) | TGI (OVCAR-3 ovarian) | TGI (OVCAR-4 ovarian) | TGI (OVCAR-5 ovarian) | TGI (OVCAR-8 ovarian) | TGI (PC-3 prostate) | TGI (RPMI-8226 leukemia) | TGI (RXF 393 renal) | TGI (SF-268 CNS) | TGI (SF-295 CNS) | TGI (SF-539 CNS) | TGI (SK-MEL-2 melanoma) | TGI (SK-MEL-28 melanoma) | TGI (SK-MEL-5 melanoma) | TGI (SK-OV-3 ovarian) | TGI (SN12C renal) | TGI (SNB-19 CNS) | TGI (SNB-75 CNS) | TGI (SR leukemia) | TGI (SW-620 colon) | TGI (T-47D breast) | TGI (TK-10 renal) | TGI (U251 CNS) | TGI (UACC-257 melanoma) | TGI (UACC-62 melanoma) | TGI (UO-31 renal)

Source: PubChem BioAssay (NCI)
